The test system of the assay is CEM cells HIV-1 protection, formazan growth assay. As to the kind of experiment: NCI AIDS Antiviral Assay. Conditions: for IC50: measured here: growth of uninfected CEM cells. The method in brief:
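Protection of CEM cells against HIV-1 was scored from cell growth (soluble formazan) across five concentrations, with parallel uninfected cells. Lack of protection may reflect toxicity.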

Activity calls are given as the source filed them.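 How the source made its calls: active means compounds giving half or more protection of infected cells from virus-caused growth loss, again on retest; inactive means the rest.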

With `CCOC(=O)c1c(OCCCc2ccc(F)cc2)cc2ccc3ccccc3c2c1OCCCc1ccc(F)cc1`, the EC50 is more than 18.2 µM and the IC50 was more than 18.2 µM.
In the case of `N#CCCN(CCC#N)c1ccc(/C=C(/NC(=O)c2cc([N+](=O)[O-])ccc2Cl)C(=O)NN)cc1`, the EC50 is more than 10.7 µM and the IC50 is more than 10.7 µM.
On to `CCOP(=O)(OCC)c1cc2cc(O)ccc2oc1=O`, for which the EC50 was more than 200 µM and the IC50 is more than 200 µM.
For `NC(CSS(=O)(=O)O)=NCCc1c[nH]c(=S)[nH]1`, the EC50 is more than 200 µM and the IC50 was determined as 34.7 µM.
With `Cn1c(O)c(N=Nc2ccccc2[N+](=O)[O-])c2ccccc21`, the EC50 was more than 200 µM and the IC50 was more than 200 µM.
Take `CN1C2CCC1/C(=C/c1cccc3c1OCO3)C(=O)/C2=C\c1cccc2c1OCO2`: the EC50 is more than 6.76 µM and the IC50 was more than 6.76 µM.
As to `CSC(SC)=C1Sc2cccc(Cl)c2S1`, the EC50 is more than 9.33 µM and the concentration for half-maximal inhibition (IC50) was more than 9.33 µM.
Take `Oc1cccc2nc3cc(CN4CCOCC4)c(CN4CCOCC4)cc3nc12`: the EC50 is more than 18.2 µM and the half-inhibitory concentration (IC50) was more than 18.2 µM.
As to `Nc1nc(Cl)c(N)c(NCC2(CO)CCCC2)n1`, the EC50 was more than 200 µM and the IC50 is 102 µM.
For `CCOC(=O)C(C(=O)OCC)C(c1ccc(OC)cc1)N1CCN(C(c2ccc(OC)cc2)C(C(=O)OCC)C(=O)OCC)CC1` (configuration not stated) the same measures were more than 100 µM and more than 100 µM.
Take `CCN(CC)CCn1c(=O)c2ccccc2n2c3c(=O)n(C)c(=O)n(C)c3nc12`: the EC50 is more than 20 µM and the half-inhibitory concentration (IC50) came out at 1.86 µM.
Regarding `Nc1nnc(N)c2[nH]cnc12`, the EC50 is more than 200 µM and the IC50 is more than 200 µM.
For the molecule `Cc1cc2c(cc1-c1cc3c(cc1C)C(C(C)C)=C(O)C(=O)/C3=C\Nc1c(C)n(C)n(-c3ccccc3)c1=O)/C(=C/Nc1c(C)n(C)n(-c3ccccc3)c1=O)C(=O)C(O)=C2C(C)C`, the EC50 is more than 200 µM and the half-inhibitory concentration (IC50) was found to be 34.7 µM.
Turning to `c1ccc2c(c1)Cc1cn3c(nc1-2)nc1ccccc13`, the EC50 was more than 200 µM and the IC50 came to 129 µM.
As to `NC1=NN(c2ccccc2)C2(O)c3ccncc3C3=NN(c4ccccc4)C(=O)C132` (configuration not stated), the EC50 is more than 200 µM and the IC50 is more than 200 µM.
For `COC1=C(C(c2cc(OC)c(OC)c(OC)c2)c2cc3c(cc2OC)OCO3)C(=O)OC1` (configuration not stated), the EC50 was more than 200 µM and the IC50 was determined as 10.5 µM.
Consider `C=C1CC(C)(COc2ccc3ccc(=O)oc3c2)OC1=O` (configuration not stated), for which the EC50 is more than 20 µM and the half-maximal inhibitory concentration (IC50) stood at 0.275 µM.
For `CN(C)C=C1C(=O)c2ccccc2C1=O` the same measures were more than 35.5 µM and more than 35.5 µM.
On to `Nc1o[nH]c(=O)c1C1CCCCC1`, for which the EC50 is more than 200 µM and the IC50 was more than 200 µM.
As for `Cc1ccc2c(c1C)C(=O)/C(=C/c1ccccc1C(=O)O)C2`, the EC50 is 38 µM and the IC50 is 93.3 µM.
As to `NC(=O)NN=C1CSSC1`, the EC50 is 18.6 µM and the half-maximal inhibitory concentration (IC50) was found to be 70.8 µM.
For `CCCCCCn1c(SC)nc(COC(=O)NC)c1COC(=O)NC` the same measures were more than 200 µM and 35.5 µM.
As to `O=c1cc[nH]cc1-c1c[nH]ccc1=O`, the outcome was inactive.
In turn, `O=C(O)C1C2C=CC(C2)C1c1c2ccc(=O)c(O)c-2oc2c(O)c(O)ccc12` (configuration not stated) had an EC50 of more than 200 µM and an IC50 of 26.3 µM.
As for `O=C(Cc1ccccc1)NC(C(=O)c1ccccc1)c1ccccc1` (configuration not stated), the EC50 is more than 79.4 µM and the IC50 was more than 79.4 µM.
With `O=c1[nH]cc(/C=N\OCCP(=O)(O)O)c(=O)[nH]1`, the EC50 is more than 200 µM and the half-maximal inhibitory concentration (IC50) was more than 200 µM.
Regarding `CCCCCC=C(c1ccc(OC)c(C(=O)OC)c1)c1ccc(OC)c(C(=O)OC)c1`, the EC50 is more than 200 µM and the IC50 came out at 27.5 µM.
For the molecule `Cc1cc(NC2=NCCO2)c2c(c1C)CCCC2`, the EC50 is more than 200 µM and the IC50 was 29.5 µM.
On the same counts, the results for `COc1ccc2c(c1)OC[C@@H]1c3cc(NS(=O)(=O)c4ccccc4)cc(OC)c3O[C@H]21` are more than 200 µM and 18.2 µM.

(Values after PubChem BioAssay AID179 (DTP/NCI, 2004).)
